# Biological target: T1, human recombinant OX2 (hOX2) receptors expressed in CHO cells (Homo sapiens, UniProt O43614)
# T1 construct: host or cells: CHO cells (hOX2-CHO)
# T1 sequence (O43614 1-444): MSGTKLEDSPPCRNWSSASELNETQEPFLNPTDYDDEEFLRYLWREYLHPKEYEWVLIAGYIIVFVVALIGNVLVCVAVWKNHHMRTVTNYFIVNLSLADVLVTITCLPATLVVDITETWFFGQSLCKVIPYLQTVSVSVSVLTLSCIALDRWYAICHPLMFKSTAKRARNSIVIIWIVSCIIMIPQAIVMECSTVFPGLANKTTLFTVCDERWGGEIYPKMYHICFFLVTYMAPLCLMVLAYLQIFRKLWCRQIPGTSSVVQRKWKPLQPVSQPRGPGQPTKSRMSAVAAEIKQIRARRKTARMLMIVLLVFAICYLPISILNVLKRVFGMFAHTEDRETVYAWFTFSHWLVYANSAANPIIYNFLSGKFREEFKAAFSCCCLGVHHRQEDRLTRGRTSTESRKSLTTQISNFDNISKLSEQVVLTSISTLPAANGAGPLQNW
# Experiment: IP-1 accumulation assay (IP-One HTRF) in hOX2-CHO cells
# Format: cell-based
# Details: 60 min incubation at 37° C., mean of at least two independent experiments, read-out: EC50_OX2R Category
# Protocol: The accumulation of Inositol-1 Monophosphate (IP-1) was measured using IP-One HTRF® Terbium cryptate based assay (Cisbio) in human recombinant OX1 (hOX1) and at OX2 (hOX2) receptors expressed in CHO cells (DiscoverX) according to the manufacturer's instructions for cells tested in suspension.
# hOX1-CHO and hOX2-CHO cells were seeded into white 384-well plates at a density of 20,000 cells/well in Hank's Balanced Salt Solution (HBSS) containing 20 mM HEPES pH 7.4, 50 mM, LiCl and 0.1% and Bovine Serum Albumin (BSA).
# Compounds of disclosure were tested in an 11 points concentration response curve (CRC) serially diluted in neat DMSO at 200 fold concentrations and added by Echo acoustic liquid handling (Labcyte) to the cells (0.5% DMSO final in the assay). After 60 min of incubation at 37° C. detection reagents, IP1-d2 tracer and anti-IP1-cryptate were diluted in lysis buffer according to the manufacturer's descriptions and added to the cells.
# Following 60 min incubation at room temperature, time-resolved fluorescence (HTRF) was measured at 615 nm and 665 nm by Envision Multilabel reader (Perkin Elmer) and the HTRF ratio (A665/A615×10^4) was calculated.
# The IP-1 accumulation response was expressed as percentage of the maximal OX-A response.
# Curve fitting and EC50 estimations were carried out using a four-parameter logistic model using XLfit Software. Mean data of EC50 are calculated from at least two independent experiments performed in duplicates
row,EC50,Structure (SMILES)
1,100 to 1000 nM,"C[C@@H]1C[C@@]2(COCC(=O)N2)[C@@H]2CO[C@H]3CC[C@H](CC3)c3cc(Cl)ccc3OCC(=O)N12 (single isomer, unassigned) [Example 21a]"
2,> 10000 nM,"C[C@@H]1C[C@]2(COCC(=O)N2)[C@H]2CO[C@H]3CC[C@H](CC3)c3cc(Cl)ccc3OCC(=O)N12 (single isomer, unassigned) [Example 21b]"
3,< 100 nM,"Cc1ccc2c(c1)[C@H]1CC[C@H](CC1)OC[C@@H]1N(C(=O)CO2)[C@H](C)C[C@@]12COCC(=O)N2 (single isomer, unassigned) [Example 22a]"
4,> 10000 nM,"Cc1ccc2c(c1)[C@H]1CC[C@H](CC1)OC[C@H]1N(C(=O)CO2)[C@H](C)C[C@]12COCC(=O)N2 (single isomer, unassigned) [Example 22b]"
5,100 to 1000 nM,"C[C@@H]1C[C@@]2(COCC(=O)N2)[C@@H]2CO[C@H]3CC[C@H](CC3)c3cccnc3OCC(=O)N12 (single isomer, unassigned) [Example 23a]"
6,1000 to 10000 nM,"C[C@@H]1C[C@]2(COCC(=O)N2)[C@H]2CO[C@H]3CC[C@H](CC3)c3cccnc3OCC(=O)N12 (single isomer, unassigned) [Example 23b]"
7,100 to 1000 nM,"C[C@@H]1C[C@]2(COCC(=O)N2)[C@H]2CO[C@H]3CC[C@H](CC3)c3cccc(F)c3OCCC(=O)N12 (single isomer, unassigned) [Example 24b]"
8,< 100 nM,"O=C1COC[C@@]2(CCCN3C(=O)COc4ccccc4[C@H]4CC[C@H](CC4)OC[C@H]32)N1 (single isomer, unassigned) [Example 32a]"
9,> 10000 nM,"O=C1COC[C@]2(CCCN3C(=O)COc4ccccc4[C@H]4CC[C@H](CC4)OC[C@@H]32)N1 (single isomer, unassigned) [Example 32b]"
10,< 100 nM,"O=C1COC[C@@]2(CCCN3C(=O)CCOc4ccccc4[C@H]4CC[C@H](CC4)OC[C@H]32)N1 (single isomer, unassigned) [Example 33a]"
11,100 to 1000 nM,"O=C1COC[C@]2(CCCN3C(=O)CCOc4ccccc4[C@H]4CC[C@H](CC4)OC[C@@H]32)N1 (single isomer, unassigned) [Example 33b]"
12,< 100 nM,"CC1Oc2ccccc2[C@H]2CC[C@H](CC2)OC[C@@H]2N(CCC[C@@]23COCC(=O)N3)C1=O (single isomer, unassigned) [Example 35a]"
13,> 10000 nM,"CC1Oc2ccccc2[C@H]2CC[C@H](CC2)OC[C@H]2N(CCC[C@]23COCC(=O)N3)C1=O (single isomer, unassigned) [Example 35b]"
14,< 100 nM,"O=C1COC[C@@]2(CCCN3C(=O)C4(CC4)COc4ccccc4[C@H]4CC[C@H](CC4)OC[C@H]32)N1 (single isomer, unassigned) [Example 37a, (1′s,16′S,17′R,20′s)-dispiro[cyclopropane-1,10′-[8,19]dioxa-[12]azatetracyclo[18.2.2.0^2,70.0^12,17]tetracosane-16′,3″-morpholine]-2′(7′),3′,5′-triene-5″,11′-dione]"
15,1000 to 10000 nM,"O=C1COC[C@]2(CCCN3C(=O)C4(CC4)COc4ccccc4[C@H]4CC[C@H](CC4)OC[C@@H]32)N1 (single isomer, unassigned) [Example 37b, (1′s,16′R,17′S,20′s)-dispiro[cyclopropane-1,10′-[8,19]dioxa-[12]azatetracyclo[18.2.2.0^2,70.0^12,17]tetracosane-16′,3″-morpholine]-2′(7′),3′,5′-triene-5″,11′-dione]"
16,< 100 nM,"O=C1COC[C@@]2(CCCN3C(=O)COc4c(F)cccc4[C@H]4CC[C@H](CC4)OC[C@H]32)N1 (single isomer, unassigned) [Example 38a]"
17,1000 to 10000 nM,"O=C1COC[C@]2(CCCN3C(=O)COc4c(F)cccc4[C@H]4CC[C@H](CC4)OC[C@@H]32)N1 (single isomer, unassigned) [Example 38b]"
18,> 10000 nM,"O=C1COC[C@@]2(CCCN3C(=O)COc4c(F)cc(F)cc4[C@H]4CC[C@H](CC4)OC[C@H]32)N1 (single isomer, unassigned) [Example 39a]"
19,< 100 nM,"O=C1COC[C@]2(CCCN3C(=O)COc4c(F)cc(F)cc4[C@H]4CC[C@H](CC4)OC[C@@H]32)N1 (single isomer, unassigned) [Example 39b]"
20,< 100 nM,"O=C1COC[C@@]2(CCCN3C(=O)COc4cccc(F)c4[C@H]4CC[C@H](CC4)OC[C@H]32)N1 (single isomer, unassigned) [Example 40a]"
21,1000 to 10000 nM,"O=C1COC[C@]2(CCCN3C(=O)COc4cccc(F)c4[C@H]4CC[C@H](CC4)OC[C@@H]32)N1 (single isomer, unassigned) [Example 40b]"

row,EC50,Structure (SMILES)
1,< 100 nM,"O=C1COC[C@@]2(CCCN3C(=O)COc4ccc(F)cc4[C@H]4CC[C@H](CC4)OC[C@H]32)N1 (single isomer, unassigned) [Example 41a]"
2,1000 to 10000 nM,"O=C1COC[C@]2(CCCN3C(=O)COc4ccc(F)cc4[C@H]4CC[C@H](CC4)OC[C@@H]32)N1 (single isomer, unassigned) [Example 41b]"
3,< 100 nM,"O=C1COC[C@@]2(CCCN3C(=O)COc4cc(F)cc(F)c4[C@H]4CC[C@H](CC4)OC[C@H]32)N1 (single isomer, unassigned) [Example 42a]"
4,100 to 1000 nM,"O=C1COC[C@]2(CCCN3C(=O)COc4cc(F)cc(F)c4[C@H]4CC[C@H](CC4)OC[C@@H]32)N1 (single isomer, unassigned) [Example 42b]"
5,< 100 nM,"O=C1COC[C@@]2(CCCN3C(=O)COc4ccc(F)c(F)c4[C@H]4CC[C@H](CC4)OC[C@H]32)N1 (single isomer, unassigned) [Example 43a]"
6,> 10000 nM,"O=C1COC[C@]2(CCCN3C(=O)COc4ccc(F)c(F)c4[C@H]4CC[C@H](CC4)OC[C@@H]32)N1 (single isomer, unassigned) [Example 43b]"
7,< 100 nM,"O=C1COC[C@@]2(CCCN3C(=O)COc4c(F)ccc(F)c4[C@H]4CC[C@H](CC4)OC[C@H]32)N1 (single isomer, unassigned) [Example 44a]"
8,> 10000 nM,"O=C1COC[C@]2(CCCN3C(=O)COc4c(F)ccc(F)c4[C@H]4CC[C@H](CC4)OC[C@@H]32)N1 (single isomer, unassigned) [Example 44b]"
9,< 100 nM,"O=C1COC[C@@]2(CCCN3C(=O)COc4ncccc4[C@H]4CC[C@H](CC4)OC[C@H]32)N1 (single isomer, unassigned) [Example 45a]"
10,< 100 nM,"O=C1COC[C@@]2(CCCN3C(=O)COc4nccc(F)c4[C@H]4CC[C@H](CC4)OC[C@H]32)N1 (single isomer, unassigned) [Example 46a]"
11,1000 to 10000 nM,"O=C1COC[C@]2(CCCN3C(=O)COc4nccc(F)c4[C@H]4CC[C@H](CC4)OC[C@@H]32)N1 (single isomer, unassigned) [Example 46b]"
12,< 100 nM,"Cc1cccc2c1[C@H]1CC[C@H](CC1)OC[C@@H]1N(CCC[C@@]13COCC(=O)N3)C(=O)CO2 (single isomer, unassigned) [Example 47a]"
13,1000 to 10000 nM,"Cc1cccc2c1[C@H]1CC[C@H](CC1)OC[C@H]1N(CCC[C@]13COCC(=O)N3)C(=O)CO2 (single isomer, unassigned) [Example 47b]"
14,< 100 nM,"O=C1COC[C@@]2(CCCN3C(=O)CCOc4c(F)cccc4[C@H]4CC[C@H](CC4)OC[C@H]32)N1 (single isomer, unassigned) [Example 48a]"
15,< 100 nM,"O=C1COC[C@]2(CCCN3C(=O)CCOc4c(F)cccc4[C@H]4CC[C@H](CC4)OC[C@@H]32)N1 (single isomer, unassigned) [Example 48b]"
16,< 100 nM,"O=C1COC[C@@]2(CCCN3C(=O)CCOc4ccc(F)cc4[C@H]4CC[C@H](CC4)OC[C@H]32)N1 (single isomer, unassigned) [Example 49a]"
17,< 100 nM,"O=C1COC[C@]2(CCCN3C(=O)CCOc4ccc(F)cc4[C@H]4CC[C@H](CC4)OC[C@@H]32)N1 (single isomer, unassigned) [Example 49b]"
18,< 100 nM,"O=C1COC[C@@]2(CCCN3C(=O)CCOc4c(F)cc(F)cc4[C@H]4CC[C@H](CC4)OC[C@H]32)N1 (single isomer, unassigned) [Example 50a]"
19,100 to 1000 nM,"O=C1COC[C@]2(CCCN3C(=O)CCOc4c(F)cc(F)cc4[C@H]4CC[C@H](CC4)OC[C@@H]32)N1 (single isomer, unassigned) [Example 50b]"
20,< 100 nM,"O=C1COC[C@@]2(CCCN3C(=O)OCCOc4cccc(c4)[C@H]4CC[C@H](CC4)OC[C@H]32)N1 (single isomer, unassigned) [Example 53a]"
